system: post-synaptic Dopamine (D.A.) receptors; test: Inhibition of apomorphine induced climbing in the mouse; assay type: in vivo; conditions: dose for 50% inhibition of apomorphine (1 mg/kg s.c.) induced climbing, male CD1 mice, ½ hour post dosing po; 30 min

Going from “4-Chloro- and 6-Chloro-5-amino-2-(3β-N-(9-(4^1-methylbenzyl) -9-azabicyclo[3.3.1]nonyl)]phthalimidine [Compound E8]” to `Cc1ccc(CN2[C@@H]3CCC[C@H]2C[C@H](N2Cc4ccccc4C2=O)C3)cc1` [Compound E1], the ED50 rises from 0.5 mg/kg to 1.1 mg/kg (2.2-fold).

Going from `Cc1ccc(CN2[C@@H]3CCC[C@H]2C[C@H](N2Cc4cc(Cl)ccc4C2=O)C3)cc1` [Compound E2] to `O=C1c2ccc(Cl)cc2CN1[C@@H]1C[C@H]2CCC[C@@H](C1)N2Cc1ccc(F)cc1` [Compound E3], the ED50 rises from 0.5 mg/kg to 1.2 mg/kg (2.4-fold).

Going from `Nc1ccc2c(c1)CN([C@@H]1C[C@H]3CCC[C@@H](C1)N3Cc1ccc(F)cc1)C2=O` [Compound E5, 5-Amino-2-(3β-N-(9-(4^1-fluorobenzyl)-9-azabicyclo[3.3.1]nonyl)]phthalimidine] to `Cc1ccc(CN2[C@@H]3CCC[C@H]2C[C@H](N2Cc4cc(N)ccc4C2=O)C3)cc1` [Compound E6, 5-Amino-2-[3β-N-(9-(4^1-methylbenzyl)-9-azabicyclo[3.3.1]nonyl)]phthalimidine], the ED50 falls from 0.6 mg/kg to 0.3 mg/kg (2-fold).

same assay, conditions: subcutaneous dosing; dose for 50% inhibition of apomorphine (1 mg/kg s.c.) induced climbing, male CD1 mice; 30 min

`CN(C)S(=O)(=O)c1ccc2c(c1)C(=O)N([C@@H]1C[C@H]3CC[C@@H](C1)N3Cc1ccccc1)C2` [Compound E9, 6-Dimethylaminosulphonyl-2-N-[3β(8-benzyl-8-azabicyclo [3.2.1]octyl)]phthalimidine] was tested, and the ED50 was 3.0 (subcutaneous dosing) mg/kg.
